Results from US20120122727A1, “IN VITRO METHOD FOR PREDICTING WHETHER A COMPOUND IS GENOTOXIC IN VIVO” (priority 2009, published 2012).
Where two headings read alike, the source gives them in different places.

Legend:
[1] = cited from earlier work
[2] = test system: primary mouse hepatocytes; assay: Class prediction true GTX vs false GTX by PAM from hepatocyte gene expression
Procedure: PAM uses gene expression data to calculate the shrunken centroid for each class and identifies the specific genes that determine the centroid most. Based on the nearest shrunken centroid, PAM is also capable of predicting to which class an unknown sample belongs (27). Class prediction was performed after 24 h and 48 h of exposure.
For this analysis, the gene list with differentially expressed probe sets was used. For each exposure period, 3 sets of genes (classifiers) were generated by PAM, using all ten treatments, based on the smallest estimated misclassification error rate (generated by 10-fold cross-validation) and a >80% predicted test probability. This was done by using 2 experiments as training set and the third experiment for validation. This was done for all 3 possible combinations, each time leaving out another experiment. For each time point, the classifiers that were in common between the three training sets, were set as the final classifier set for that time point
For the purpose of validating the class discrimination models with the final classifier sets, gene expression data were generated for two additional true GTX compounds, phenacetin and DMBA, and for three False GTX compounds, cur, ethylacrylate and resorcinol and the vehicle control for exposure periods of 24 and 48 h.

[3] = 24 h exposure, independent triplicate treatments
[4] = 48 h exposure, independent triplicate treatments
[5] = PAM class prediction, 24 h, Exp 1
[6] = PAM class prediction, 24 h, Exp 2
[7] = PAM class prediction, 24 h, Exp 3
[8] = PAM class prediction, 48 h, Exp 1
[9] = PAM class prediction, 48 h, Exp 2
[10] = PAM class prediction, 48 h, Exp 3
[11] = known class of the validation compound (GTX = true GTX, FP-GTX = false GTX)

| Prediction 24 h Exp 1 [2] | Prediction 24 h Exp 2 [2] | Prediction 24 h Exp 3 [2] | Prediction 48 h Exp 1 [2] | Prediction 48 h Exp 2 [2] | Prediction 48 h Exp 3 [2] | class prediction (true GTX / false GTX) [2] | predicted test probability ([2]; mouse) | Compound | Genotoxic class ([1]; in vivo) | class prediction (true GTX / false GTX) [2, 3] | class prediction (true GTX / false GTX) [2, 4] | Prediction 24 h Exp 1 [2, 5] | Prediction 24 h Exp 2 [2, 6] | Prediction 24 h Exp 3 [2, 7] | Prediction 48 h Exp 1 [2, 8] | Prediction 48 h Exp 2 [2, 9] | Prediction 48 h Exp 3 [2, 10] | predicted test probability ([2]; both time points (24 and 48 h)) | Genotoxic class [1, 11] |
| --- | --- | --- | --- | --- | --- | --- | --- | --- | --- | --- | --- | --- | --- | --- | --- | --- | --- | --- | --- |
| – | – | – | – | – | – | – | – | C=CC(=O)OCC [ethylacrylate] | FP-GTX | classified correctly | classified correctly | FP-GTX | FP-GTX | FP-GTX | FP-GTX | FP-GTX | FP-GTX | 100% | – |
| FP-GTX | FP-GTX | FP-GTX | FP-GTX | FP-GTX | FP-GTX | classified correctly | 100% | Oc1cccc(O)c1 [resorcinol] | – | – | – | – | – | – | – | – | – | – | FP-GTX |
| – | – | – | – | – | – | – | – | Cc1c2ccccc2c(C)c2c1ccc1ccccc12 [DMBA] | – | classified correctly | classified correctly | GTX | GTX | GTX | GTX | GTX | GTX | 100% | GTX |
| – | – | – | – | – | – | – | – | CCOc1ccc(NC(C)=O)cc1 [Phen] | – | – | – | GTX | GTX | GTX | FP-GTX | FP-GTX | FP-GTX | – | GTX |
